Assay results taken from US20100287636A1, “COMPOSITIONS AND METHODS FOR INHIBITING INDUCIBLE T CELL KINASE (ITK) AND TREATING ASTHMA AND BRONCHIAL INFLAMMATIONS” (San Diego State University Foundation, dba San Diego State …, priority 2007, published 2010).
No end group written: not given here.

Experiments:
Jurkat cells = assay: viability measurements on Jurkat cells; assay type: cell-based; conditions: highest concentration tested
ITK-SLP76 interaction = molecular target: T1, ITK-SLP76 interaction (Homo sapiens, UniProt Q08881); assay: inhibition of inducible ITK-SLP76 association in stimulated Jurkat cells (co-immunoprecipitation); assay type: cell-based
T1 construct: endogenous in cells; host or cells: Jurkat T cells
T1 sequence (Q08881 1-620): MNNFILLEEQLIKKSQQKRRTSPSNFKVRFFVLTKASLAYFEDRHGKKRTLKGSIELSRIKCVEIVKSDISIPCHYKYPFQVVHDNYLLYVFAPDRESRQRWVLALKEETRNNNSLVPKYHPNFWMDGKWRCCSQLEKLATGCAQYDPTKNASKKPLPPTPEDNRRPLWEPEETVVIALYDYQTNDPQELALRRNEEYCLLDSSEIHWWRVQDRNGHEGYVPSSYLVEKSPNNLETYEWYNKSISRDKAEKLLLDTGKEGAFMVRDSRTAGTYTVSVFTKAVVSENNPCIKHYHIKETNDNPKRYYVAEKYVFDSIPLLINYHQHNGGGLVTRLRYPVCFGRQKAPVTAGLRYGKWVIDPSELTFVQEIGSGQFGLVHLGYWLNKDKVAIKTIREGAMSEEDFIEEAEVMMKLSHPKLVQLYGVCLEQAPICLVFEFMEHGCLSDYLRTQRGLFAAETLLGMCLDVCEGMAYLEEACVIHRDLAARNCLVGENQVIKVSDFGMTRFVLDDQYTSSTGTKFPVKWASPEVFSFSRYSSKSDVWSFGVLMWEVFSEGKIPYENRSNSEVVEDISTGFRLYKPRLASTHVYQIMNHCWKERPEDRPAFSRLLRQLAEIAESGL
Procedure: (§1) FIG. 1. Inducible Association between ITK and SLP76: Jurkat T cells were stimulated through their TCR for various periods of time and then lysed. Lysates were treated with antibody to SLP-76 (IP: anti-SLP76) and the immune complexes were resolved by gel electrophoresis. The resolved proteins were transferred onto a membrane where ITK and SLP76 were visualized by probing with specific antibodies reactive with these proteins. First, ITK was probed (IB: anti-ITK) and subsequently SLP76 (IB: anti-SLP76). […] The interpretation is that ITK and SLP76 participate in a stimulation inducible signaling complex. Furthermore, the association of ITK and SLP76 in this complex is time dependent. It happens at one (1) minute post stimulation and then the two proteins dissociate.
(§2) FIG. 4. Inhibition of ITK-SLP76 inducible association by the polyArg-SLP76 peptide conjugate of the invention: We next addressed the important question of whether the presence of the exemplary SLP76 peptide of the invention disrupts the physical association between ITK and SLP76. Jurkat cells were stimulated as described under FIG. 1 above in the presence or absence of various concentrations of the exemplary Arg-conjugated SLP76 peptide of the invention. […] This index was calculated by correcting the ITK signals for the total of SLP 76 signal in each lane and then calculating the ratio over the non-stimulated control. […]

ITK [1] = molecular target: T2, ITK (Homo sapiens, UniProt Q08881); assay: phosphorylation of ITK on Tyr 511 in Jurkat cells (flow cytometry); assay type: cell-based; conditions: text does not separate Jurkat and mouse splenocytes, read-out: peptide concentration for fifty percent inhibition of ITK phosphorylation
T2 construct: endogenous in cells; host or cells: Jurkat T cells
T2 sequence (Q08881 1-620): T1 sequence (Q08881 1-620)
Procedure: (§3) FIG. 6. […] Following stimulation the cells were stained with specific anti-ITK phosphotyrosine antibodies obtained from a commercial source (BD Biosciences) and following the manufacturer's instructions for intracytoplasmic staining. The stained samples were analyzed in a flow cytometer and the percent phosphorylation related to control (100%) was quantified. […] Fifty percent inhibition was achieved by approximately 1 μM peptide

SH3 domain of ITK = molecular target: T3, SH3 domain of ITK (Mus musculus, UniProt Q03526); conditions: chemical shift perturbation assays, reference (17); read-out: Kd of the in vitro interaction between peptide and the SH3 domain of ITK; cited from earlier work
T3 sequence (Q03526 177-237 limits assumed): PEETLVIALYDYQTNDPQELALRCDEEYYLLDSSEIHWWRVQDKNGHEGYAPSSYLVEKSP

ITK [2] = molecular target: T4, ITK (Mus musculus, UniProt Q03526); assay: phosphorylation of ITK on Tyr 511 in mouse splenocytes (flow cytometry); assay type: cell-based; conditions: text does not separate Jurkat and mouse splenocytes, read-out: peptide concentration for fifty percent inhibition of ITK phosphorylation
T4 construct: endogenous in cells; host or cells: primary mouse splenic lymphocytes
T4 sequence (Q03526 1-625): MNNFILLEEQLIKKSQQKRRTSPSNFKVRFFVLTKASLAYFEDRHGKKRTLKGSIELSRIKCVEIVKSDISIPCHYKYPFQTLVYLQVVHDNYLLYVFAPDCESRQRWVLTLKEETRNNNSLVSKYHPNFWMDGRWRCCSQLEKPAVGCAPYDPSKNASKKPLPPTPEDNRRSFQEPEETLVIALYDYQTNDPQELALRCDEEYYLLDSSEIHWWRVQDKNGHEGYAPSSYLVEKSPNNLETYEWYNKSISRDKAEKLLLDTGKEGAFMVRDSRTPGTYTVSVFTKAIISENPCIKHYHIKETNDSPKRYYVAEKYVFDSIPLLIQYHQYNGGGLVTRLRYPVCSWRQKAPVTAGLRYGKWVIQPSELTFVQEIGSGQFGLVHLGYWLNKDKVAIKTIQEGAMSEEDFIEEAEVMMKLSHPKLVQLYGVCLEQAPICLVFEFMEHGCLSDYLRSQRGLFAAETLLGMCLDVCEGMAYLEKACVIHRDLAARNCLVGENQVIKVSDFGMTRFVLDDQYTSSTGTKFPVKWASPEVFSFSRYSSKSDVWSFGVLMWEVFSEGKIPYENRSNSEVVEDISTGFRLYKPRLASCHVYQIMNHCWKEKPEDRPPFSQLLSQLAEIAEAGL
Description: In view of the significant degree of ITK-SLP 76 inhibition mediated by the exemplary arginine-SLP 76 peptide conjugate of the invention, henceforth called R9-QQP, the next question was whether the exemplary R9-QQP peptide can inhibit the phosphorylation of ITK. This is important because it represents an accurate index of ITK activity; see e.g., referenced (14), below. Furthermore, the data described above have been performed by using the Jurkat T cell line. Even though this is a very useful cellular model for research, it is a leukemic cell line and thus, data obtained with this model should be confirmed in a more normal physiological substrate. Therefore, we also tested the effect of R9-QQP on primary mouse splenic lymphocytes.
as §3

[3] = molecular target: T5, Inducible T cell Kinase (ITK), endogenous in Jurkat T cells (human, UniProt Q08881 1-620); assay: co-IP from TCR-stimulated Jurkat T cell lysates (IP anti-SLP76, IB anti-ITK)
T5 construct: Endogenous intracellular ITK from Jurkat T cell lysates; The tie rests on Jurkat being a human T cell line
T5 sequence: T1 sequence (Q08881 1-620)
Procedure: as §1

[4] = molecular target: T5, Inducible T cell Kinase (ITK), …; assay: competition in cells: co-IP of ITK with SLP76 from stimulated Jurkat cells against peptide concentration (association index, average of three experiments)
Procedure: as §1, §2

[5] = molecular target: T6, R9 (nine Arginine amino acids by themselves)
T6 chain: RRRRRRRRR

[6] = molecular target: R9-Scrambled arginine-SLP 76 peptide conjugate (R9-SCR)

Q: For RRRRRRRRRQQPPVPPQRPMA [R9-QQP], which “toxic effects on Jurkat cells (viability)” value (Jurkat cells) is on record?
A: The value was “no toxic effects”.

Q: And the inhibition at 1 µM (ITK-SLP76 interaction; 1 μM of peptide, Jurkat cells stimulated 1 minute)?
A: Its inhibition at 1 µM is about 50%.

Q: What about the IC50 (ITK-SLP76 interaction; Jurkat cells, read-out: concentration for 50% inhibition in the ITK-SLP 76 association) of the same molecule?
A: The IC50 was about 1000 nM.

Q: And the IC50 (ITK [1])?
A: Its IC50 is about 1000 nM.

Q: What about the Kd (SH3 domain of ITK) of the same molecule?
A: Its Kd is 770 nM.

Q: What about the IC50 (ITK [2]) of the same molecule?
A: The IC50 was about 1000 nM.

B1: SLP76, endogenous in Jurkat T cells (other, UniProt Q13094 1-533, looked up)
chain: MALRNVPFRSEVLGWDPDSLADYFKKLNYKDCEKAVKKYHIDGARFLNLTENDIQKFPKLRVPILSKLSQEINKNEERRSIFTRKPQVPRFPEETESHEEDNGGWSSFEEDDYESPNDDQDGEDDGDYESPNEEEEAPVEDDADYEPPPSNDEEALQNSILPAKPFPNSNSMYIDRPPSGKTPQQPPVPPQRPMAALPPPPAGRNHSPLPPPQTNHEEPSRSRNHKTAKLPAPSIDRSTKPPLDRSLAPFDREPFTLGKKPPFSDKPSIPAGRSLGEHLPKIQKPPLPPTTERHERSSPLPGKKPPVPKHGWGPDRRENDEDDVHQRPLPQPALLPMSSNTFPSRSTKPSPMNPLPSSHMPGAFSESNSSFPQSASLPPYFSQGPSNRPPIRAEGRNFPLPLPNKPRPPSPAEEENSLNEEWYVSYITRPEAEAALRKINQDGTFLVRDSSKKTTTNPYVLMVLYKDKVYNIQIRYQKESQVYLLGTGLRGKEDFLSVSDIIDYFRKMPLLLIDGKNRGSRYQCTLTHAAGYP
notes: whole, on cells; Endogenous intracellular adaptor protein, immunoprecipitated from Jurkat lysates with anti-SLP76 antibody
Q: Does B1 bind [3]?
A: Result: binds

B2: R9-QQP, arginine-SLP76 peptide conjugate RRRRRRRRRQQPPVPPQRPMA (peptide)
peptide: RRRRRRRRRQQPPVPPQRPMA
notes: Synthetic cell-penetrating peptide; It was loaded into Jurkat cells or mouse splenocytes, or injected intraperitoneally into mice; A fluorescein-labelled version was used only for uptake studies, which are not recorded; also called Arg-SLP76 conjugate peptide; polyArg-SLP76 peptide conjugate
Q: With B2 as the molecule, how does the IC50 [4] read?
A: The IC50 was about 1000 nM.

B3: ITK, endogenous in mouse splenic lymphocytes (protein)
chain: T4 sequence (Q03526 1-625)
Q: With B3 as the molecule, how does the “ITK Tyr 511 phosphorylation, flow cytometry, primary mouse splenic lymphocytes” value [5] read?
A: The value was “None of the two control peptides had significant effects on the phosphorylation of ITK in either Jurkat or primary mouse splenic lymphocytes”.

Q: And the “ITK Tyr 511 phosphorylation, flow cytometry, primary mouse splenic lymphocytes” value [6]?
A: The value was “None of the two control peptides had significant effects on the phosphorylation of ITK in either Jurkat or primary mouse splenic lymphocytes”.
